In ChEMBL document CHEMBL1151154, “Potential inhibitors of platelet aggregation from plant sources, V. Anthraquinones from seeds of Cassia obtusifolia and related compounds” (1990):

Columns and labels:
Assay type in all cases: functional
[1] = Antiplatelet activity in rat platelet rich plasma assessed as drug level causing inhibition of collagen-stimulated platelet aggregation pretreated 2 mins before collagen challenge
[2] = Antiplatelet activity in rat platelet rich plasma assessed as drug level causing inhibition of arachidonic acid-stimulated platelet aggregation pretreated 2 mins before arachidonic acid challenge
[3] = Antiplatelet activity in rat platelet rich plasma assessed as drug level causing inhibition of ADP-stimulated platelet aggregation pretreated 2 mins before ADP challenge

Row | Compound | Activity [1] | Activity [2] | Activity [3]
1 | O=C1c2cccc(O)c2C(=O)c2c(O)cc(CO)cc21 [ALOE-EMODIN] | 0.25 mg/mL | 0.25 mg/mL | >0.25 mg/mL
2 | Cc1cc(O)c2c(c1)Cc1cccc(O)c1C2=O | >0.25 mg/mL | >0.25 mg/mL | >0.25 mg/mL
3 | O=C1c2cccc(O)c2C(=O)c2c(O)cccc21 [DANTHRON] | >0.25 mg/mL | >0.25 mg/mL | >0.25 mg/mL
4 | Cc1cc(O)c2c(c1)C(=O)c1cccc(O)c1C2=O [CHRYSOPHANOL] | >0.25 mg/mL | >0.25 mg/mL | >0.25 mg/mL
5 | O=C1c2ccccc2C(=O)c2c1ccc(O)c2O [ATHRAQUINONES A] | >0.25 mg/mL | >0.25 mg/mL | >0.25 mg/mL
6 | O=C1c2ccccc2C(=O)c2c(O)ccc(O)c21 [QUINIZARIN] | >0.25 mg/mL | >0.25 mg/mL | >0.25 mg/mL
7 | COc1cc2c(c(OC)c1OC)C(=O)c1c(cc(C)c(O[C@@H]3O[C@H](CO)[C@@H](O)[C@H](O)[C@H]3O)c1OC)C2=O | 0.05 mg/mL | 0.025 mg/mL | 0.025 mg/mL
8 | COc1c(O[C@@H]2O[C@H](CO)[C@@H](O)[C@H](O)[C@H]2O)c(C)cc2c1C(=O)c1c(O)cccc1C2=O | 0.1 mg/mL | 0.05 mg/mL | 0.25 mg/mL
9 | COc1cc2c(c(OC)c1OC)C(=O)c1c(cc(C)c(O)c1OC)C2=O [CHRYSOOBTUSIN] | 0.25 mg/mL | 0.25 mg/mL | 0.25 mg/mL
10 | Cc1cc(O)c2c(c1)C(=O)c1cc(O)cc(O)c1C2=O [EMODIN] | >0.25 mg/mL | >0.25 mg/mL | >0.25 mg/mL
11 | O=C1c2ccc(O)cc2C(=O)c2ccc(O)cc21 [ANTHRAFLAVICACID] | >0.25 mg/mL | >0.25 mg/mL | >0.25 mg/mL
12 | COc1c(O)c(C)cc2c1C(=O)c1c(O)cccc1C2=O [OBTUSIFOLIN] | 0.25 mg/mL | 0.25 mg/mL | >0.25 mg/mL
13 | COc1c(O[C@@H]2O[C@H](CO)[C@@H](O)[C@H](O)[C@H]2O)cc2c(c1O)C(=O)c1c(cc(C)c(O)c1OC)C2=O | 0.1 mg/mL | 0.05 mg/mL | 0.05 mg/mL
14 | O=C(O)c1cc(O)c2c(c1)C(=O)c1cccc(O)c1C2=O [RHEIN] | 0.25 mg/mL | 0.25 mg/mL | 0.25 mg/mL
15 | COc1cc(O)c2c(c1)C(=O)c1cc(C)cc(O)c1C2=O [PHYSCION] | >0.25 mg/mL | 0.25 mg/mL | 0.25 mg/mL
16 | COc1c(O)cc2c(c1O)C(=O)c1c(cc(C)c(O)c1OC)C2=O [AURANTIOOBTUSIN] | >0.25 mg/mL | >0.25 mg/mL | >0.25 mg/mL
